Assay results reported in US20210262029A1, “TREATMENT OF KCNQ2 AND KCNQ3 GAIN OF FUNCTION-ASSOCIATED DISORDERS” (The Trustees of Columbia University in the City of New York, priority 2018, published 2021).

Tests used:
KCNQ3 = KCNQ3 (Homo sapiens, UniProt O43525); settings: homomeric KCNQ3 wild type, CHO cells
Text: (§1) Variants were introduced in KCNQ3 human cDNA cloned into pcDNA3.1 by QuikChange site-directed mutagenesis (Agilent Technologies, Milan, Italy), as previously described.^12 Channel subunits were expressed in Chinese hamster ovary (CHO) cells by transient transfection using Lipofectamine 2000 (Invitrogen, Carlsbad, Calif.) according to the manufacturer's protocol.^17 A plasmid encoding enhanced green fluorescent protein (Clontech Laboratories, Mountain View, Calif.) was used as a transfection marker; total cDNA in the transfection mixture was kept constant at 4 μg.
(§2) Currents were recorded under whole-cell patch-clamp at room temperature (20-22° C.) 1 to 2 days after transfection as reported.^12 Current densities (expressed in pA/pF) were calculated as peak K^+ currents at 0 mV divided by cell capacitance. To generate conductance-voltage curves, the cells were held at −80 mV, then depolarized for 1.5 seconds from ˜120 to +20 mV in 10 mV increments, followed by an isopotential pulse at 0 mV of 300-millisecond duration. The current values recorded at the beginning of the 0 mV pulse were measured, normalized, and expressed as a function of the preceding voltages. The data were then fit to a Boltzmann distribution of the following form: y=max/[1+exp(V½−V)/k], where V is the test potential, V½ the half-activation potential, and k the slope factor.

KCNQ3 R2C = KCNQ3 R2C (Homo sapiens, UniProt O43525, R230C); settings: 30 mM TEA; homomeric KCNQ3 R2C (R230C); CHO cells
Text: as §1, §2

KCNQ3 R2S = KCNQ3 R2S (Homo sapiens, UniProt O43525, R230S); settings: 30 mM TEA; homomeric KCNQ3 R2S (R230S); CHO cells
Text: as §1, §2

KCNQ3 R2H = KCNQ3 R2H (Homo sapiens, UniProt O43525, R230H); settings: 30 mM TEA; homomeric KCNQ3 R2H (R230H); CHO cells
Text: as §1, §2

KCNQ3 R1Q = KCNQ3 R1Q (Homo sapiens, UniProt O43525, R227Q); settings: 30 mM TEA; homomeric KCNQ3 R1Q (R227Q); CHO cells
Text: as §1, §2

[1] = test system: KCNQ2 + KCNQ3 + KCNQ3 R1Q; settings: KCNQ2 + KCNQ3 + KCNQ3 R1Q 1:0.5:0.5, CHO cells
Text: (§3) To mimic the genetic condition of patients, who carry a single mutant allele, and considering that IKM in adult neurons is mainly formed by tetrameric co-assembly of KCNQ2 and KCNQ3 subunits, we transfected CHO cells with KCNQ2 and KCNQ3 cDNAs in a 1:1 ratio (to mimic the genetic balance of normal individuals), and KCNQ2+KCNQ3+mutant KCNQ3 1:0.5:0.5 ratio (to mimic the genetic balance of affected individuals).
as §1, §2

[2] = test system: KCNQ2 + KCNQ3 + KCNQ3 R2S; settings: KCNQ2 + KCNQ3 + KCNQ3 R2S 1:0.5:0.5, CHO cells
Text: as §3, §1, §2

KCNQ2 + KCNQ3 = KCNQ2 + KCNQ3 (Homo sapiens, UniProt O43525+O43526); settings: KCNQ2 + KCNQ3 1:1, CHO cells
Text: as §3, §1, §2

[3] = test system: KCNQ2 + KCNQ3 + KCNQ3 R2C; settings: KCNQ2 + KCNQ3 + KCNQ3 R2C 1:0.5:0.5, CHO cells
Text: as §3, §1, §2

[4] = test system: KCNQ2 + KCNQ3 + KCNQ3 R2H; settings: KCNQ2 + KCNQ3 + KCNQ3 R2H 1:0.5:0.5, CHO cells
Text: as §3, §1, §2

Sequence of KCNQ3 (O43525 whole entry): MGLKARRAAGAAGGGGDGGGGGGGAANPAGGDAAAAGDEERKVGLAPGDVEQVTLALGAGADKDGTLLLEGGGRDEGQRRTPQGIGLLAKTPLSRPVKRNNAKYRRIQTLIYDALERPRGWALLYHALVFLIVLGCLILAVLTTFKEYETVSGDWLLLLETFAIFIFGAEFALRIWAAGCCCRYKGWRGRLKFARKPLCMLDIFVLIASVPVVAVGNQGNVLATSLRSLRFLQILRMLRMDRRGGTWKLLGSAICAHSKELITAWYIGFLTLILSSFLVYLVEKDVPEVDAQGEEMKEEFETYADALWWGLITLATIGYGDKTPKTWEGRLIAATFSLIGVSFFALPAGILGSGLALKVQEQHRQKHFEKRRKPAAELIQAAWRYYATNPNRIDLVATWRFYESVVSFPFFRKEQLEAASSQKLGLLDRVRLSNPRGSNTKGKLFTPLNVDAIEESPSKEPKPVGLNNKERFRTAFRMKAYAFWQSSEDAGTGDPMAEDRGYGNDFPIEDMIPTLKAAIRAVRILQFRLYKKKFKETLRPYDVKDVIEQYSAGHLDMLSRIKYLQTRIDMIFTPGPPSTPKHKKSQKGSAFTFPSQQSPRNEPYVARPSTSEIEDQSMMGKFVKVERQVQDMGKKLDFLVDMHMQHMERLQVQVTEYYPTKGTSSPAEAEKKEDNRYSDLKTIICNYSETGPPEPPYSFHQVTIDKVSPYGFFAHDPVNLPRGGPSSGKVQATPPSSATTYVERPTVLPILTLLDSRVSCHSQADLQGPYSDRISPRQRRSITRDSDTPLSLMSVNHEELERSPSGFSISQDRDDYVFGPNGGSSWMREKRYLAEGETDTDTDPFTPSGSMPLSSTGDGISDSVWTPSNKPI
Sequence of KCNQ2 + KCNQ3 (O43526 1-844 isoform O43526-3): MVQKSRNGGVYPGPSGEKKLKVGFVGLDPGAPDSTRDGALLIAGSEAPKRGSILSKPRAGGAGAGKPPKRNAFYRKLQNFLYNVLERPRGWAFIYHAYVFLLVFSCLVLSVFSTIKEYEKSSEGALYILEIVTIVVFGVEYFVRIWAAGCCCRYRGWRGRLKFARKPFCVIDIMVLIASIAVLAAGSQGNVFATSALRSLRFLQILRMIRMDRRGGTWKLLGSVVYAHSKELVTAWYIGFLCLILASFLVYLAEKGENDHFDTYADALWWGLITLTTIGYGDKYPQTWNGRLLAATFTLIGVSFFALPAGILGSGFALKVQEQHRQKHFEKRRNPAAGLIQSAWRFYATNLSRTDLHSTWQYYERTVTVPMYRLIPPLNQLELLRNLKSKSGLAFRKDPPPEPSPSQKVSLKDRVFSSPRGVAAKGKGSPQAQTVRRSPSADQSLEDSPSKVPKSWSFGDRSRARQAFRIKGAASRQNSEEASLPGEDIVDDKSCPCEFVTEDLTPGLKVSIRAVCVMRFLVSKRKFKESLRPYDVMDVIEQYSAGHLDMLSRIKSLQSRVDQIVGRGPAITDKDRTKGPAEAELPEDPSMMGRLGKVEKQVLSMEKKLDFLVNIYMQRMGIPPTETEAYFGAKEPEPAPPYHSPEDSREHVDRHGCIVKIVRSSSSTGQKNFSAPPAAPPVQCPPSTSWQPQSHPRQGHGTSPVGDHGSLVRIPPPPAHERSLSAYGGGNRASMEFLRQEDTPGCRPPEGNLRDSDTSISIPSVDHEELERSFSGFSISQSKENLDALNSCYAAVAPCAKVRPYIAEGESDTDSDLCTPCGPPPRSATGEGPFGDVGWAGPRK
Sequence of KCNQ2 + KCNQ3 (O43525 whole entry): as the sequence (O43525 whole entry) above
Sequence of KCNQ3 R2S (O43525 whole entry R230S): as the sequence (O43525 whole entry) above, with R230S counted along it
Sequence of KCNQ3 R1Q (O43525 whole entry R227Q): as the sequence (O43525 whole entry) above, with R227Q counted along it
Sequence of KCNQ3 R2H (O43525 whole entry R230H): as the sequence (O43525 whole entry) above, with R230H counted along it
Sequence of KCNQ3 R2C (O43525 whole entry R230C): as the sequence (O43525 whole entry) above, with R230C counted along it

Question: Which results are given for CC[N+](CC)(CC)CC [TEA, tetraethylammonium]?
Answer: Blockade by TEA, % 0.3 mM (KCNQ3; 0.3 mM TEA): 6.4 ± 1.8%; Blockade by TEA, % 3 mM (KCNQ3; 3 mM TEA): 13.0 ± 3.4%; Blockade by TEA, % 30 mM (KCNQ3; 30 mM TEA): 61.7 ± 5.7%; Blockade by TEA, % 30 mM (KCNQ3 R2C): 58.6 ± 13%; Blockade by TEA, % 30 mM (KCNQ3 R2S): 66.1 ± 6.1%; Blockade by TEA, % 30 mM (KCNQ3 R2H): 70.9 ± 7.3%; Blockade by TEA, % 30 mM (KCNQ3 R1Q): 61.1 ± 6.8%; Blockade by TEA, % 0.3 mM ([1]; 0.3 mM TEA): 19.3 ± 2.0%; Blockade by TEA, % 3 mM ([1]; 3 mM TEA): 44.1 ± 4.3%; Blockade by TEA, % 30 mM ([1]; 30 mM TEA): 85.3 ± 2.1%; Blockade by TEA, % 0.3 mM ([2]; 0.3 mM TEA): 12.9 ± 2.3%; Blockade by TEA, % 3 mM ([2]; 3 mM TEA): 43.6 ± 8.2%; Blockade by TEA, % 30 mM ([2]; 30 mM TEA): 80.1 ± 6.5%; Blockade by TEA, % 0.3 mM (KCNQ2 + KCNQ3; 0.3 mM TEA): 15.6 ± 3.1%; Blockade by TEA, % 3 mM (KCNQ2 + KCNQ3; 3 mM TEA): 50.5 ± 3.1%; Blockade by TEA, % 30 mM (KCNQ2 + KCNQ3; 30 mM TEA): 78.8 ± 5.6%; Blockade by TEA, % 0.3 mM ([3]; 0.3 mM TEA): 14.0 ± 6.2%; Blockade by TEA, % 3 mM ([3]; 3 mM TEA): 47.1 ± 9.9%; Blockade by TEA, % 30 mM ([3]; 30 mM TEA): 77.0 ± 7.3%; Blockade by TEA, % 0.3 mM ([4]; 0.3 mM TEA): 20.8 ± 3.1%; Blockade by TEA, % 3 mM ([4]; 3 mM TEA): 47.4 ± 2.5%; Blockade by TEA, % 30 mM ([4]; 30 mM TEA): 78.8 ± 3.2%
